# From ChEMBL document CHEMBL3885881, “DrugMatrix”
# Species on record: Rattus norvegicus
# Assay: DrugMatrix - Regimen: Daily Repeat
# Type: toxicity, organism-based, Sprague-Dawley
# Set-up: regimen Daily Repeat, gender Male, age 6-8 weeks
# Conditions: in vivo, po, route oral GAVAGE, […]; for ABSOLUTE BASOPHIL / BASOPHIL / NUCLEATED RED BLOOD CELLS / ABSOLUTE EOSINOPHIL / EOSINOPHIL / ERYTHROCYTE COUNT / HEMATOCRIT / HEMOGLOBIN / LEUKOCYTE COUNT / LYMPHOCYTE / MEAN CORPUSCULAR HEMOGLOBIN / MEAN CORPUSCULAR HEMOGLOBIN CONCENTRATION / MEAN CORPUSCULAR VOLUME / MONOCYTE / NEUTROPHIL / PLATELET COUNT / ABSOLUTE LYMPHOCYTE / ABSOLUTE MONOCYTE / ABSOLUTE SEGMENTED NEUTROPHIL: tissue Blood
# [1] = 0 mg/kg, 72 h, dose level Control, time 3 day
# [2] = 0 mg/kg, 120 h, dose level Control, time 5 day
# [3] = 0 mg/kg, dose level Control, time 28 day
# [4] = 0 mg/kg, tissue Plasma, dose level Control, time 28 day
# [5] = 23 mg/kg, 72 h, dose level Low, time 3 day
# [6] = 23 mg/kg, 72 h, tissue Plasma, dose level Low, time 3 day
# [7] = 23 mg/kg, 120 h, dose level High, time 5 day
# [8] = 23 mg/kg, 120 h, dose level Low, time 5 day
# [9] = 23 mg/kg, 120 h, tissue Plasma, dose level High, time 5 day
# [10] = 23 mg/kg, 120 h, tissue Plasma, dose level Low, time 5 day
smiles,measurement,setting,value
CC1=C(CC(=O)O)c2cc(F)ccc2/C1=C\c1ccc([S+](C)[O-])cc1 (stereo not given),ABSOLUTE BASOPHIL,[1],0 CELLS/uL
same,BASOPHIL,[1],0%
same,NUCLEATED RED BLOOD CELLS,[1],0 /100WBC
same,ABSOLUTE BASOPHIL,[2],0 CELLS/uL
same,ABSOLUTE EOSINOPHIL,[2],0 CELLS/uL
same,BASOPHIL,[3],0.42%
same,EOSINOPHIL,[3],0.58%
same,ERYTHROCYTE COUNT,[3],8.06 x10E6/uL
same,HEMATOCRIT,[3],48.44%
same,HEMOGLOBIN,[3],16.34 G/DL
same,LEUKOCYTE COUNT,[3],13.04 x10E3/uL
same,LYMPHOCYTE,[3],85.12%
same,MEAN CORPUSCULAR HEMOGLOBIN,[3],20.26 pg
same,MEAN CORPUSCULAR HEMOGLOBIN CONCENTRATION,[3],33.74 G/DL
same,MEAN CORPUSCULAR VOLUME,[3],60.1 fL
same,MONOCYTE,[3],1.44%
same,NEUTROPHIL,[3],11.28%
same,PLATELET COUNT,[3],1226 x10E3/uL
same,ALANINE AMINOTRANSFERASE,[4],28.6 u/L
same,ALBUMIN,[4],3.94 G/DL
same,ALKALINE PHOSPHATASE,[4],254.6 u/L
same,ASPARTATE AMINOTRANSFERASE,[4],67.8 u/L
same,BLOOD UREA NITROGEN,[4],10.4 mg/dL
same,CHLORIDE,[4],104.6 MEQ/L
same,CHOLESTEROL,[4],57.6 mg/dL
same,CREATINE PHOSPHOKINASE,[4],224.8 u/L
same,CREATININE,[4],0.4 mg/dL
same,GLUCOSE,[4],140.6 mg/dL
same,PHOSPHORUS,[4],10.66 mg/dL
same,POTASSIUM,[4],6.58 MEQ/L
same,SODIUM,[4],148.6 MEQ/L
same,TOTAL BILIRUBIN,[4],0.24 mg/dL
same,TOTAL PROTEIN,[4],6.64 G/DL
same,ABSOLUTE BASOPHIL,[5],0 CELLS/uL
same,ABSOLUTE EOSINOPHIL,[5],0 CELLS/uL
same,ABSOLUTE LYMPHOCYTE,[5],6660 CELLS/uL
same,ABSOLUTE MONOCYTE,[5],202 CELLS/uL
same,ABSOLUTE SEGMENTED NEUTROPHIL,[5],1671.33 CELLS/uL
same,BASOPHIL,[5],0%
same,EOSINOPHIL,[5],0%
same,ERYTHROCYTE COUNT,[5],4.91 x10E6/uL
same,HEMATOCRIT,[5],31.27%
same,HEMOGLOBIN,[5],12.6 G/DL
same,LEUKOCYTE COUNT,[5],8.53 x10E3/uL
same,LYMPHOCYTE,[5],79.33%
same,MEAN CORPUSCULAR HEMOGLOBIN,[5],25.63 pg
same,MEAN CORPUSCULAR HEMOGLOBIN CONCENTRATION,[5],40.27 G/DL
same,MEAN CORPUSCULAR VOLUME,[5],63.67 fL
same,MONOCYTE,[5],2.33%
same,NEUTROPHIL,[5],18.33%
same,NUCLEATED RED BLOOD CELLS,[5],0 /100WBC
same,PLATELET COUNT,[5],1080 x10E3/uL
same,ALANINE AMINOTRANSFERASE,[6],65.67 u/L
same,ALBUMIN,[6],3.97 G/DL
same,ALKALINE PHOSPHATASE,[6],429 u/L
same,ASPARTATE AMINOTRANSFERASE,[6],75.67 u/L
same,BLOOD UREA NITROGEN,[6],14.33 mg/dL
same,CARBON DIOXIDE,[6],38.33 mmol/L
same,CHLORIDE,[6],99.33 MEQ/L
same,CHOLESTEROL,[6],87 mg/dL
same,CREATINE PHOSPHOKINASE,[6],223.33 u/L
same,CREATININE,[6],0.18 mg/dL
same,GLUCOSE,[6],181 mg/dL
same,LACTATE DEHYDROGENASE,[6],60.67 u/L
same,LIPASE,[6],16 u/L
same,PHOSPHORUS,[6],9.23 mg/dL
same,POTASSIUM,[6],4.45 MEQ/L
same,SODIUM,[6],143.57 MEQ/L
same,TOTAL BILIRUBIN,[6],0.13 mg/dL
same,TOTAL PROTEIN,[6],5.8 G/DL
same,URIC ACID,[6],0.47 mg/dL
same,BASOPHIL,[7],0.28%
same,EOSINOPHIL,[7],0.82%
same,ERYTHROCYTE COUNT,[7],7.33 x10E6/uL
same,HEMATOCRIT,[7],47.1%
same,HEMOGLOBIN,[7],14.9 G/DL
same,LEUKOCYTE COUNT,[7],7.35 x10E3/uL
same,LYMPHOCYTE,[7],79.44%
same,MEAN CORPUSCULAR HEMOGLOBIN,[7],20.4 pg
same,MEAN CORPUSCULAR HEMOGLOBIN CONCENTRATION,[7],31.66 G/DL
same,MEAN CORPUSCULAR VOLUME,[7],64.4 fL
same,MONOCYTE,[7],1.92%
same,NEUTROPHIL,[7],16.36%
same,PLATELET COUNT,[7],1405.2 x10E3/uL
same,ABSOLUTE BASOPHIL,[8],0 CELLS/uL
same,ABSOLUTE EOSINOPHIL,[8],0 CELLS/uL
same,ABSOLUTE LYMPHOCYTE,[8],5718.33 CELLS/uL
same,ABSOLUTE MONOCYTE,[8],84 CELLS/uL
same,ABSOLUTE SEGMENTED NEUTROPHIL,[8],664.33 CELLS/uL
same,BASOPHIL,[8],0%
same,EOSINOPHIL,[8],0%
same,ERYTHROCYTE COUNT,[8],5.51 x10E6/uL
same,HEMATOCRIT,[8],34.03%
same,HEMOGLOBIN,[8],13.47 G/DL
same,LEUKOCYTE COUNT,[8],6.47 x10E3/uL
same,LYMPHOCYTE,[8],88.33%
same,MEAN CORPUSCULAR HEMOGLOBIN,[8],24.47 pg
same,MEAN CORPUSCULAR HEMOGLOBIN CONCENTRATION,[8],39.6 G/DL
same,MEAN CORPUSCULAR VOLUME,[8],61.87 fL
same,MONOCYTE,[8],1.33%
same,NEUTROPHIL,[8],10.33%
same,NUCLEATED RED BLOOD CELLS,[8],0.33 /100WBC
same,PLATELET COUNT,[8],949.67 x10E3/uL
same,ALANINE AMINOTRANSFERASE,[9],32.2 u/L
same,ALBUMIN,[9],3.8 G/DL
same,ALKALINE PHOSPHATASE,[9],308.4 u/L
same,ASPARTATE AMINOTRANSFERASE,[9],75.4 u/L
same,BLOOD UREA NITROGEN,[9],8.8 mg/dL
same,CHLORIDE,[9],109 MEQ/L
same,CHOLESTEROL,[9],63.8 mg/dL
same,CREATINE PHOSPHOKINASE,[9],287.2 u/L
same,CREATININE,[9],0.42 mg/dL
same,GLUCOSE,[9],131.8 mg/dL
same,PHOSPHORUS,[9],14.88 mg/dL
same,POTASSIUM,[9],6.36 MEQ/L
same,SODIUM,[9],151.6 MEQ/L
same,TOTAL BILIRUBIN,[9],0.18 mg/dL
same,TOTAL PROTEIN,[9],6.24 G/DL
same,ALANINE AMINOTRANSFERASE,[10],67.33 u/L
same,ALBUMIN,[10],4.17 G/DL
